In patent publication US8729032B2, “Self-assembling peptide and peptide gel with high strength” (Menicon Co., Ltd., priority 2009, dated 2014) one finds cell growth rate and cell growth rates data, which are given here for two substances.

In one assay the test system is mouse myoblasts (L6). Put plainly: Cell culture in peptide gel, DNA quantification (CyQUANT), cell growth rate. Format: cell-based. Particulars: rate immediately after start = 100%, peptide 0.4 w/v %, average of n=3. The source says:
A cell suspension including mouse myoblasts (L6) at a cell concentration of 2.0×10^6 cells/ml and a peptide aqueous solution including the modified peptide 1 at 1.0 w/v % were mixed with each other at a volume ratio of 3:2 (cell suspension:peptide aqueous solution). The resultant mixture (cell concentration: 1.2×10^6 cells/ml, peptide concentration: 0.4 w/v %) was charged into a Cell Culture Insert (product number “353096” manufactured by BD Falcon) and left to stand still at room temperature for approximately 1 minute to form a peptide gel. The gel in the Cell Culture Insert was directly set in wells of a 24-well plate for tissue culture (product number “3820-024” manufactured by AGC TECHNO GLASS CO., LTD.) with 1 mL of a DMEM medium containing 10% calf serum. Next, cell culture was carried out in an incubator at 37° C. in the presence of 5% CO2. Medium exchange was carried out only once on Day 2 after the start of culture. The gel was collected on Days 1, 2, and 4 after the start of culture, and DNA quantification was carried out using a trade name “CyQUANT (registered trademark) Cell Proliferation Assay Kit*for cells in culture**1000 assays*” (product number “C7026” manufactured by Invitrogen), to thereby calculate cell growth rates. The cell growth rates on Days 1, 2, and 4 after the start of culture were 150%, 180%, and 310%, respectively, when the cell growth rate immediately after the start of culture was defined as 100%, that is, the number of cells increased in accordance with a lapse of days (an average of n=3 was used for the calculation results).

For another assay, the system named is mouse NIH3T3 cells. Put plainly: Cell culture in autoclaved peptide gel, Cell Counting Kit 8, cell growth rate. To be noted: Day 0 (Hour 2), Day 1, Day 3, Day 5; gel from 0.5 w/v % solution autoclaved at 121° C. for 20 minutes; FIG. 9. Format: cell-based. The method, then: The modified peptide 1 was dissolved in a sodium carbonate solution to prepare a 0.5 w/v % peptide aqueous solution (final concentration of sodium carbonate: 2.75 mM). The peptide aqueous solution was subjected to sterilization treatment at 121° C. for 20 minutes using an autoclave apparatus (product number “MLS 3020” manufactured by SANYO Electric Co., Ltd.) to afford a peptide gel. The gel and a cell suspension obtained by suspending mouse NIH3T3 cells in a DMEM medium were uniformly mixed with each other at a volume ratio of 2:1 (gel:cell suspension) by pipetting. […] Cell growth rates were measured using a trade name “Cell Counting Kit 8” (manufactured by DOJINDO LABORATORIES) on Day 0 (Hour 2), Day 1, Day 3, and Day 5 after the start of culture.
A specific procedure for the measurement of the cell growth rates described above is as described below. […] After the incubation, 100 μL of the medium permeating the gel in the Cell Culture Insert were transferred to a well of a 96-well plate, and the absorbance of the medium at 450 nm was measured using a plate reader. Cell growth rates in the respective culture days were determined with the absorbance of a sample on Day 0 after the start of culture defined as 100.

Turning to “[CH3CO]-RLDLRLLLRLDLR-[NH2] (Ac-RLDLRLLLRLDLR-NH2) [modified peptide 2]”, the cell growth rate is given as 140% in the assay with mouse myoblasts (L6) (Day 1 after start of culture), 160% in the assay on mouse myoblasts (L6) (Day 2 after start of culture) and 250% in the assay on mouse myoblasts (L6) (Day 4 after start of culture).

Consider “[CH3CO]-RLDLRLALRLDLR-[NH2] (Ac-RLDLRLALRLDLR-NH2) [modified peptide 1]”, for which the cell growth rates result with mouse NIH3T3 cells is reported as “increased in accordance with a lapse of culture days”. Besides, the cell growth rate is on record as 150% in the assay with mouse myoblasts (L6) (Day 1 after start of culture), 180% in the assay with mouse myoblasts (L6) (Day 2 after start of culture) and 310% in the assay on mouse myoblasts (L6) (Day 4 after start of culture).
